# Data reported in patent US7875647B2, “Heteroaryl-pyrazole derivatives as cannabinoid CB1 receptor antagonists” (Green Cross Corporation, priority 2006, dated 2011).
# Target: T1, Cannabinoid-1 receptor (CB1R) (Rattus norvegicus, UniProt P20272)
# T1 construct: The tissue obtained from the brain of SD rats was homogenized; from tissue; host or cells: brain of SD rats (membrane pellet of the homogenate)
# Test: Cannabinoid-1 receptor (CB1R) binding affinity assay ([3H]CP-55940, rat CB-1 receptor binding protocol)
# Settings: IC50(nM), brain tissue of SD rats, [3H]CP-55940, 30° C. 60 min
# T1 sequence (P20272 whole entry): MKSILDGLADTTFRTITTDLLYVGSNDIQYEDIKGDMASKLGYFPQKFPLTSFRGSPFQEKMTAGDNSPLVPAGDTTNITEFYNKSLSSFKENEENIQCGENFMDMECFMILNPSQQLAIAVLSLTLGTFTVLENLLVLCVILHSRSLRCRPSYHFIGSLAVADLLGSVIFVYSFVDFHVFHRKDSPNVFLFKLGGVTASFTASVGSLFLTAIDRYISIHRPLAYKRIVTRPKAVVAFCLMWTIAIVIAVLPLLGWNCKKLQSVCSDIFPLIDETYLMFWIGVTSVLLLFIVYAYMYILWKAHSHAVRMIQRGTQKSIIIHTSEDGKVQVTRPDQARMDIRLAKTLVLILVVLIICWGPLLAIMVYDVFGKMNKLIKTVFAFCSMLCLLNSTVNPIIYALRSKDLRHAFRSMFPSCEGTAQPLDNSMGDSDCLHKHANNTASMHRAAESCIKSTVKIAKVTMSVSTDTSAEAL
row,Molecule,IC50 [nM]
1,"CCCCc1cnc(-c2nn(-c3ccc(Cl)cc3Cl)c(-c3ccc(Cl)cc3)c2C)o1 [Example 639, 5-butyl-2-(5-(4-chlorophenyl)-1-(2,4-dichlorophenyl)-4-methyl-1H-pyrazol-3-yl)oxazole]",57.2

# Same assay, conditions: brain tissue of SD rats, [3H]CP-55940, 30° C. 60 min; read-out: IC50
row,Molecule,IC50 [nM]
1,"Cc1c(-c2nnc(C3CCOCC3)o2)nn(-c2ccc(Cl)cc2Cl)c1-c1ccc(Cl)cc1 [Example 23, 2-(5-(4-Chlorophenyl)-1-(2,4-dichlorophenyl)-4-methyl-1H-pyrazol-3-yl)-5-(tetrahydro-2H-pyran-4-yl)-1,3,4-oxadiazole]",163
2,"CC(C)(C)c1nnc(-c2nn(-c3ccc(Cl)cc3Cl)c(-c3ccc(Cl)cc3)c2Cn2cnnn2)o1 [Example 300, 2-(4-((1H-tetrazol-1-yl)methyl)-5-(4-chlorophenyl)-1-(2,4-dichlorophenyl)-1H-pyrazol-3-yl)-5-tert-butyl-1,3,4-oxadiazole]",3.37
3,"CC(C)(C)c1nnc(-c2nn(-c3ccc(Cl)cc3Cl)c(-c3ccc(Cl)cc3)c2CN2C(=O)CCC2=O)o1 [Example 305, 1-((3-(5-tert-butyl-1,3,4-oxadiazol-2-yl)-5-(4-chlorophenyl)-1-(2,4-dichlorophenyl)-1H-pyrazol-4-yl)methyl)pyrrolidine-2,5-dione]",287
4,"2-(1-benzylcyclopropyl)-5-(5-(4-chlorophenyl)-1-(2,4-dichlorophenyl)-4-methyl-1H-pyrazol-3-yl)-1,3,4-thiadiazole [Example 467]",14.8
5,"CC(C)(C)c1nnc(-c2nn(-c3ccc(Cl)cc3Cl)c(-c3ccc(Cl)cc3)c2Cn2ccnn2)o1 [Example 304, 2-(4-((1H-1,2,3-triazol-1-yl)methyl)-5-(4-chlorophenyl)-1-(2,4-dichlorophenyl)-1H-pyrazol-3-yl)-5-tert-butyl-1,3,4-oxadiazole]",12.8
6,"COCc1c(-c2nnc(C(C)(C)C)o2)nn(-c2ccc(Cl)cc2Cl)c1-c1ccc(Cl)cc1 [Example 205, 2-tert-butyl-5-(5-(4-chlorophenyl)-1-(2,4-dichlorophenyl)-4-(methoxymethyl)-1H-pyrazol-3-yl)-1,3,4-oxadiazole]",15.4
7,"Cc1c(-c2nnc(C3(c4ccc(Cl)cc4)CC3)o2)nn(-c2cc(Cl)ccc2Cl)c1-c1ccc(Cl)cc1 [Example 167, 2-(5-(4-chlorophenyl)-1-(2,5-dichlorophenyl)-4-methyl-1H-pyrazol-3-yl)-5-(1-(4-chlorophenyl)cyclopropyl)-1,3,4-oxadiazole]",41.9
8,"CCCCC(O)c1nnc(-c2nn(-c3ccc(Cl)cc3Cl)c(-c3ccc(Cl)cc3)c2C)o1 (stereo not drawn) [Example 241, 1-(5-(5-(4-chlorophenyl)-1-(2,4-dichlorophenyl)-4-methyl-1H-pyrazol-3-yl)-1,3,4-oxadiazol-2-yl)pentan-1-ol]",73.4
9,"Cc1c(-c2nnc(C3CCCC3)s2)nn(-c2ccc(Cl)cc2Cl)c1-c1ccc(Br)cc1 [Example 366, 2-(5-(4-Bromophenyl)-1-(2,4-dichlorophenyl)-4-methyl-1H-pyrazol-3-yl)-5-cyclopentyl-1,3,4-thiadiazole]",18.1
10,"CC(C)(C)c1nnc(-c2nn(-c3ccc(Cl)cc3Cl)c(-c3ccc(Cl)cc3)c2COc2ccccc2)o1 [Example 233, 2-tert-butyl-5-(5-(4-chlorophenyl)-1-(2,4-dichlorophenyl)-4-(phenoxymethyl)-1H-pyrazol-3-yl)-1,3,4-oxadiazole]",28.9
11,"CCCCCn1nnc(-c2nn(-c3ccc(Cl)cc3Cl)c(-c3ccc(Cl)cc3)c2C)n1 [Example 574, 5-(5-(4-Chlorophenyl)-1-(2,4-dichlorophenyl)-4-methyl-1H-pyrazol-3-yl)-2-pentyl-2H-tetrazole]",122
12,"Cc1c(-c2nnc(C3CCC3)s2)nn(-c2ccc(Cl)cc2Cl)c1-c1ccc(Br)cc1 [Example 364, 2-(5-(4-Bromophenyl)-1-(2,4-dichlorophenyl)-4-methyl-1H-pyrazol-3-yl)-5-cyclobutyl-1,3,4-thiadiazole]",34.4
13,"C=CCOC(C)(C)c1nnc(-c2nn(-c3ccc(Cl)cc3Cl)c(-c3ccc(Br)cc3)c2CC)o1 [Example 238, 2-(2-(allyloxy)propan-2-yl)-5-(5-(4-bromophenyl)-1-(2,4-dichlorophenyl)-4-ethyl-1H-pyrazol-3-yl)-1,3,4-oxadiazole]",18.4
14,"CC(=O)OCc1c(-c2nnc(C(C)(C)C)o2)nn(-c2ccc(Cl)cc2Cl)c1-c1ccc(Cl)cc1 [Example 196, (3-(5-tert-butyl-1,3,4-oxadiazol-2-yl)-5-(4-chlorophenyl)-1-(2,4-dichlorophenyl)-1H-pyrazol-4-yl)methyl acetate]",22.4
15,"2-(5-(4-chlorophenyl)-1-(2,4-dichlorophenyl)-4-methyl-1H-pyrazol-3-yl)-5-cyclohexyl-1,3,4-thiadiazole [Example 347]",51.3
16,"CCC(C)(C)c1nnc(-c2nn(-c3ccc(Cl)cc3)c(-c3ccc(Br)cc3)c2C)s1 [Example 417, 2-(5-(4-bromophenyl)-1-(4-chlorophenyl)-4-methyl-1H-pyrazol-3-yl)-5-tert-pentyl-1,3,4-thiadiazole]",134
17,"CCCCC(C)(C)c1nnc(-c2nn(-c3ccc(Cl)cc3Cl)c(-c3ccc(Cl)cc3)c2C)s1 [Example 406, 2-(5-(4-chlorophenyl)-1-(2,4-dichlorophenyl)-4-methyl-1H-pyrazol-3-yl)-5-(2-methylhexan-2-yl)-1,3,4-thiadiazole]",27.4
18,"Cc1c(-c2n[nH]c(CC3CC3)n2)nn(-c2ccc(Cl)cc2Cl)c1-c1ccc(Cl)cc1 [Example 620, 3-(5-(4-chlorophenyl)-1-(2,4-dichlorophenyl)-4-methyl-1H-pyrazol-3-yl)-5-(cyclopropylmethyl)-1H-1,2,4-triazole]",720
19,"C#Cc1c(-c2nnc(C(C)(C)C)o2)nn(-c2ccc(Cl)cc2Cl)c1-c1ccc(Cl)cc1 [Example 260, 2-tert-butyl-5-(5-(4-chlorophenyl)-1-(2,4-dichlorophenyl)-4-ethynyl-1H-pyrazol-3-yl)-1,3,4-oxadiazole]",10.6

# Next, values leading:
row,IC50 [nM],Molecule
1,2.89,"FC(F)(F)C1(c2nnc(-c3nn(-c4ccc(Cl)cc4Cl)c(-c4ccc(Cl)cc4)c3Cn3cncn3)s2)CCC1 [Example 512, 2-(4-((1H-1,2,4-triazol-1-yl)methyl)-5-(4-chlorophenyl)-1-(2,4-dichlorophenyl)-1H-pyrazol-3-yl)-5-(1-(trifluoromethyl)cyclobutyl)-1,3,4-thiadiazole]"
2,60.9,"CCC(C)c1nc(-c2nn(-c3ccc(Cl)cc3Cl)c(-c3ccc(Cl)cc3)c2C)nn1C(C)C (stereo not drawn) [Example 633, 5-sec-butyl-3-(5-(4-chlorophenyl)-1-(2,4-dichlorophenyl)-4-methyl-1H-pyrazol-3-yl)-1-isopropyl-1H-1,2,4-triazole]"
3,2.24,"CCc1c(-c2nnc(C3(c4ccc(F)cc4)CC3)s2)nn(-c2ccc(Cl)cc2Cl)c1-c1ccc(Br)cc1 [Example 492, 2-(5-(4-bromophenyl)-1-(2,4-dichlorophenyl)-4-ethyl-1H-pyrazol-3-yl)-5-(1-(4-fluorophenyl)cyclopropyl)-1,3,4-thiadiazole]"
4,834,"CCC(C)c1nc(-c2nn(-c3ccc(Cl)cc3Cl)c(-c3ccc(Cl)cc3)c2C)nn1CC (stereo not drawn) [Example 632, 5-sec-butyl-3-(5-(4-chlorophenyl)-1-(2,4-dichlorophenyl)-4-methyl-1H-pyrazol-3-yl)-1-ethyl-1H-1,2,4-triazole]"
5,105,"Cc1c(-c2nnnn2Cc2ccoc2)nn(-c2ccc(Cl)cc2Cl)c1-c1ccc(Cl)cc1 [Example 595, 5-(5-(4-Chlorophenyl)-1-(2,4-dichlorophenyl)-4-methyl-1H-pyrazol-3-yl)-1-(furan-3-ylmethyl)-1H-tetrazole]"
6,476,"Cc1c(-c2n[nH]c(-c3ccccc3)n2)nn(-c2ccc(Cl)cc2Cl)c1-c1ccc(Cl)cc1 [Example 613, 3-(5-(4-Chlorophenyl)-1-(2,4-dichlorophenyl)-4-methyl-1H-pyrazol-3-yl)-5-phenyl-1H-1,2,4-triazole]"
7,263,"CCC(C)(C)c1nnc(-c2nn(-c3ccc(Cl)cc3Cl)c(-c3cccc(Cl)c3)c2C)s1 [Example 439, 2-(5-(3-Chlorophenyl)-1-(2,4-dichlorophenyl)-4-methyl-1H-pyrazol-3-yl)-5-tert-pentyl-1,3,4-thiadiazole]"
8,5.74,"Cc1ccc(C2(c3nnc(-c4nn(-c5ccc(Cl)cc5Cl)c(-c5ccc(Cl)cc5)c4Cn4cncn4)s3)CC2)cc1 [Example 508, 2-(4-((1H-1,2,4-triazol-1-yl)methyl)-5-(4-chlorophenyl)-1-(2,4-dichlorophenyl)-1H-pyrazol-3-yl)-5-(1-p-tolylcyclopropyl)-1,3,4-thiadiazole]"
9,573,"Cc1c(-c2nc(C3CC3)n(C(C)C)n2)nn(-c2ccc(Cl)cc2Cl)c1-c1ccc(Cl)cc1 [Example 630, 3-(5-(4-chlorophenyl)-1-(2,4-dichlorophenyl)-4-methyl-1H-pyrazol-3-yl)-5-cyclopropyl-1-isopropyl-1H-1,2,4-triazole]"
10,8.93,"CC(C)(C)c1nnc(-c2nn(-c3ccc(Cl)cc3Cl)c(-c3ccc(Br)cc3)c2CF)s1 [Example 525, 2-(5-(4-bromophenyl)-1-(2,4-dichlorophenyl)-4-(fluoromethyl)-1H-pyrazol-3-yl)-5-tert-butyl-1,3,4-thiadiazole]"
11,84.1,"Cc1c(-c2cc(C(C)(C)C)on2)nn(-c2ccc(Cl)cc2Cl)c1-c1ccc(Cl)cc1 [Example 650, 5-tert-butyl-3-(5-(4-chlorophenyl)-1-(2,4-dichlorophenyl)-4-methyl-1H-pyrazol-3-yl)isoxazole]"
12,143,"CCc1c(-c2nnc(C3(C#N)CC3)s2)nn(-c2ccc(Cl)cc2Cl)c1-c1ccc(Cl)cc1 [Example 491, 1-(5-(5-(4-chlorophenyl)-1-(2,4-dichlorophenyl)-4-ethyl-1H-pyrazol-3-yl)-1,3,4-thiadiazol-2-yl)cyclopropanecarbonitrile]"
13,388,"Cc1c(-c2nc(C3CCCCC3)n(C)n2)nn(-c2ccc(Cl)cc2Cl)c1-c1ccc(Cl)cc1 [Example 624, 3-(5-(4-chlorophenyl)-1-(2,4-dichlorophenyl)-4-methyl-1H-pyrazol-3-yl)-5-cyclohexyl-1-methyl-1H-1,2,4-triazole]"
